Measured values taken from US4473578A, “β-Lactam antibiotics and their use” (Beecham Group Limited, priority 1979, dated 1984).
Converted amounts (≈) assume the structure as drawn. Structures can show the parent of a compound that is named as a salt. Where two headings read alike, the source gives them in different places.

Experiments:
Assay in all cases: MIC in agar
Format in all cases: cell-based
Bacillus subtilis A = conditions: for MIC: Bacillus subtilis
From the text: (§1) a. Antibacterial effectiveness of compounds of
(§2) Examples 6 and 7 in agar.
(§3) (μg/ml) in agar of compound

Citrobacter freundii E8 = test system: Citrobacter freundii E8
From the text: as §1, §2, §3

Enterobacter cloacae N1 = test system: Enterobacter cloacae N1
From the text: as §1, §2, §3

Escherichia coli 0111 = test system: Escherichia coli 0111
From the text: as §1, §2, §3

Escherichia coli JT39 = test system: Escherichia coli JT39
From the text: as §1, §2, §3

Klebsiella aerogenes A = test system: Klebsiella aerogenes A
From the text: as §1, §2, §3

Proteus mirabilis C977 = test system: Proteus mirabilis C977
From the text: as §1, §2, §3

Proteus morganii 1580 = conditions: for MIC: Morganella morganii
From the text: as §1, §2, §3

Proteus rettgeri WM16 = conditions: for MIC: Providencia rettgeri
From the text: as §1, §2, §3

Proteus vulgaris W091 = test system: Proteus vulgaris W091
From the text: as §1, §2, §3

Pseudomonas aeruginosa A = test system: Pseudomonas aeruginosa A
From the text: as §1, §2, §3

[1] = test system: Salmonella typhimurium CT10; conditions: for MIC: Salmonella enterica
From the text: as §1, §2, §3

Serratia marcescens US20 = test system: Serratia marcescens US20
From the text: as §1, §2, §3

Shigella sonnei MB 11967 = conditions: for MIC: MB11967
From the text: as §1, §2, §3

[2] = test system: Staphylococcus aureus 1517
From the text: as §1, §2, §3

[3] = test system: Staphylococcus aureus Oxford
From the text: as §1, §2, §3

[4] = test system: Staphylococcus aureus Russell
From the text: as §1, §2, §3

Streptococcus faecalis I = conditions: for MIC: Enterococcus faecalis
From the text: as §1, §2, §3

[5] = test system: Streptococcus pyogenes CN10
From the text: as §1, §2, §3

E. coli ESS = conditions: Escherichia coli
From the text: | (μg/ml) in agar of compound

[6] = in agar, Citrobacter freundii E8, read-out: M.I.C.
[7] = in agar, Enterobacter cloacae N1, read-out: M.I.C.
[8] = in agar, Escherichia coli JT39, read-out: M.I.C.
[9] = in agar, Klebsiella aerogenes A, read-out: M.I.C.
[10] = in agar, Proteus mirabilis C977, read-out: M.I.C.
[11] = in agar, Proteus morganii 1580, read-out: M.I.C.
[12] = in agar, Proteus rettgeri WM16, read-out: M.I.C.
[13] = in agar, Proteus vulgaris W091, read-out: M.I.C.
[14] = in agar, Pseudomonas aeruginosa A, read-out: M.I.C.
[15] = in agar, Salmonella typhimurium CT10, read-out: M.I.C.
[16] = in agar, Serratia marcescens US20, read-out: M.I.C.
[17] = in agar, Staphylococcus aureus 1517, read-out: M.I.C.
[18] = in agar, Staphylococcus aureus Oxford, read-out: M.I.C.
[19] = in agar, Staphylococcus aureus Russell, read-out: M.I.C.
[20] = in agar, Streptococcus faecalis I, read-out: M.I.C.

SMILES | MIC (Bacillus subtilis A) | MIC (Escherichia coli 0111) | MIC (Shigella sonnei MB 11967) | MIC (Citrobacter freundii E8; [6]) | MIC (Enterobacter cloacae N1; [7]) | MIC (Escherichia coli JT39; [8]) | MIC (Klebsiella aerogenes A; [9]) | MIC (Proteus mirabilis C977; [10]) | MIC (Proteus morganii 1580; [11]) | MIC (Proteus rettgeri WM16; [12]) | MIC (Proteus vulgaris W091; [13]) | MIC (Pseudomonas aeruginosa A; [14]) | MIC [1, 15] | MIC (Serratia marcescens US20; [16]) | MIC [2, 17] | MIC [3, 18] | MIC [4, 19] | MIC (Streptococcus faecalis I; [20]) | MIC (E. coli ESS) | other results
CSC1=C(C(=O)[O-])N2C(=O)[C@H]([C@H](C)O)[C@H]2C1.[Na+] [Example 6, Sodium (5R, 6S)-3-methylthio-6-[(S)-1-hydroxyethyl]-7-oxo-1-azabicyclo[3.2.0]hept-2-ene-2-carboxylate] | 25 µg/mL | 12.5 µg/mL | 12.5 µg/mL | – | – | – | – | – | – | – | – | – | – | – | – | – | – | – | – | MIC (Citrobacter freundii E8; Citrobacter freundii, E8): 12.5 µg/mL; MIC (Enterobacter cloacae N1; Enterobacter cloacae, N1): 28 µg/mL; MIC (Escherichia coli JT39; Escherichia coli, JT39): 12.5 µg/mL; MIC (Klebsiella aerogenes A; Klebsiella aerogenes): 12.5 µg/mL; MIC (Proteus mirabilis C977; Proteus mirabilis, C977): 50 µg/mL; MIC (Proteus morganii 1580; 1580): 25 µg/mL; MIC (Proteus rettgeri WM16; WM16): 25 µg/mL; MIC (Proteus vulgaris W091; Proteus vulgaris, W091): 25 µg/mL; MIC (Pseudomonas aeruginosa A; Pseudomonas aeruginosa): > 100 µg/mL; MIC ([1]; TYPHIMURIUM): 12.5 µg/mL; MIC (Serratia marcescens US20; Serratia marcescens, US20): 12.5 µg/mL; MIC ([2]; Staphylococcus aureus, 1517): 100 µg/mL; MIC ([3]; Staphylococcus aureus): 3.1 µg/mL; MIC ([4]; Staphylococcus aureus): 6.2 µg/mL; MIC (Streptococcus faecalis I): > 100 µg/mL; MIC ([5]; Streptococcus pyogenes, CN10): 25 µg/mL
CCSC1=C(C(=O)[O-])N2C(=O)[C@H]([C@H](C)O)[C@H]2C1.[Na+] [Example 7] | – | – | – | – | – | – | – | – | – | – | – | – | – | – | – | – | – | – | – | M.I.C. (Bacillus subtilis A; in agar, Bacillus subtilis A): 5.0 µg/mL; M.I.C. (Citrobacter freundii E8; in agar, Citrobacter freundii E8): 2.5 µg/mL; M.I.C. (Enterobacter cloacae N1; in agar, Enterobacter cloacae N1): 5.0 µg/mL; M.I.C. (Escherichia coli 0111): 5.0 µg/mL; M.I.C. (Escherichia coli JT39; in agar, Escherichia coli JT39): 2.5 µg/mL; M.I.C. (Klebsiella aerogenes A; in agar, Klebsiella aerogenes A): 2.5 µg/mL; M.I.C. (Proteus mirabilis C977; in agar, Proteus mirabilis C977): 12.5 µg/mL; M.I.C. (Proteus morganii 1580; in agar, Proteus morganii 1580): 2.5 µg/mL; M.I.C. (Proteus rettgeri WM16; in agar, Proteus rettgeri WM16): 5.0 µg/mL; M.I.C. (Proteus vulgaris W091; in agar, Proteus vulgaris W091): 5.0 µg/mL; M.I.C. (Pseudomonas aeruginosa A; in agar, Pseudomonas aeruginosa A): > 50 µg/mL; M.I.C. ([1]; in agar, Salmonella typhimurium CT10): 2.5 µg/mL; M.I.C. (Serratia marcescens US20; in agar, Serratia marcescens US20): 5.0 µg/mL; M.I.C. (Shigella sonnei MB 11967): 5.0 µg/mL; M.I.C. ([3]; in agar, Staphylococcus aureus Oxford): 1.2 µg/mL; M.I.C. ([4]; in agar, Staphylococcus aureus Russell): 1.2 µg/mL; M.I.C. (Streptococcus faecalis I; in agar, Streptococcus faecalis I): > 50 µg/mL; M.I.C. ([5]; in agar, Streptococcus pyogenes CN10): 1.2 µg/mL
C[C@H](O)[C@H]1C(=O)N2C(C(=O)O)=C(S/C=C\C(=O)OCCN)C[C@H]12 [Example 18, (5R,6S)-3-[2-(Z)-(2-Aminoethoxycarbonyl)ethenylthio]-6-[(S)-1-hydroxyethyl]-7-oxo-1-azabicyclo[3.2.0]hept-2-ene-2-carboxylic acid] | – | 3.1 µg/mL (≈ 9.05 µM) | 3.1 µg/mL (≈ 9.05 µM) | 3.1 µg/mL (≈ 9.05 µM) | 3.1 µg/mL (≈ 9.05 µM) | 3.1 µg/mL (≈ 9.05 µM) | 3.1 µg/mL (≈ 9.05 µM) | 12.5 µg/mL (≈ 36.5 µM) | 3.1 µg/mL (≈ 9.05 µM) | 6.2 µg/mL (≈ 18.1 µM) | 6.2 µg/mL (≈ 18.1 µM) | 25 µg/mL (≈ 73 µM) | 3.1 µg/mL (≈ 9.05 µM) | 1.2 µg/mL (≈ 3.5 µM) | 6.2 µg/mL (≈ 18.1 µM) | ≤ 0.1 µg/mL | 0.4 µg/mL (≈ 1.17 µM) | 12.5 µg/mL (≈ 36.5 µM) | 1 µg/mL (≈ 2.92 µM) | MIC ([5]; in agar, Streptococcus pyogenes CN10, read-out: M.I.C.): ≤ 0.1 µg/mL
C[C@H](OS(=O)(=O)O)[C@@H]1C(=O)N2C(C(=O)O)=C(S/C=C\C(=O)O)C[C@H]12 [Example 22, The Trisodium salt of (5R,6R)-3-[(Z)-2-carboxyethenylthio]-6-[(S)-1-hydroxysulphonyloxyethyl]-7-oxo-1-azabicyclo[3.2.0]hept-2-ene-2-carboxylic acid] | 0.5 µg/mL | 1.2 µg/mL | 1.2 µg/mL | 25 µg/mL | 0.5 µg/mL | 1.2 µg/mL | 1.2 µg/mL | 1.2 µg/mL | 0.5 µg/mL | 1.2 µg/mL | 1.2 µg/mL | > 50 µg/mL | 1.2 µg/mL | 5 µg/mL | 25 µg/mL | 2.5 µg/mL | 2.5 µg/mL | 12.5 µg/mL | 1.2 µg/mL | –
